From patent publication US9695155B2, “Herbicidal substituted pyrimidinyloxy benzene compounds” (E. I. DU PONT DE NEMOURS AND COMPANY, priority 2013, dated 2017)

Key:
barnyardgrass [1] = test: Test A preemergence; assay type: in vivo, Echinochloa crus-galli; conditions: for Plant response rating, Barnyardgrass: 0 to 100 scale where 0 is no effect and 100 is complete control
How it was run: (§1)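 Scoring: eye-based comparison with untreated controls, 0 for no effect through 100 for complete control, at about day 10. Treatments: directed soil spray preemergence; foliar spray postemergence on 2–10 cm plants at the one- to two-leaf stage. Medium: loam soil with sand.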

kochia [2] = test: Test A preemergence; assay type: in vivo, Kochia scoparia; conditions: for Plant response rating, Kochia: 0 to 100 scale where 0 is no effect and 100 is complete control
How it was run: as §1

ragweed [3] = test: Test A preemergence; assay type: in vivo, Ambrosia elatior; conditions: for Plant response rating, Ragweed: 0 to 100 scale where 0 is no effect and 100 is complete control
How it was run: as §1

Italian ryegrass [4] = test: Test A preemergence; assay type: in vivo, Lolium multiflorum; conditions: for Plant response rating, Ryegrass, Italian: 0 to 100 scale where 0 is no effect and 100 is complete control
How it was run: as §1

giant foxtail [5] = test: Test A preemergence; assay type: in vivo, Setaria faberii; conditions: for Plant response rating, Foxtail, Giant: 0 to 100 scale where 0 is no effect and 100 is complete control
How it was run: as §1

pigweed [6] = test: Test A preemergence; assay type: in vivo, Amaranthus retroflexus; conditions: for Plant response rating, Pigweed: 0 to 100 scale where 0 is no effect and 100 is complete control
How it was run: as §1

barnyardgrass [7] = test: Test A postemergence; assay type: in vivo, Echinochloa crus-galli; conditions: for Plant response rating, Barnyardgrass: 0 to 100 scale, 0 no effect, 100 complete control
How it was run: as §1

kochia [8] = test: Test A postemergence; assay type: in vivo, Kochia scoparia; conditions: for Plant response rating, Kochia: 0 to 100 scale, 0 no effect, 100 complete control
How it was run: as §1

ragweed [9] = test: Test A postemergence; assay type: in vivo, Ambrosia elatior; conditions: for Plant response rating, Ragweed: 0 to 100 scale, 0 no effect, 100 complete control
How it was run: as §1

Italian ryegrass [10] = test: Test A postemergence; assay type: in vivo, Lolium multiflorum; conditions: for Plant response rating, Ryegrass, Italian: 0 to 100 scale, 0 no effect, 100 complete control
How it was run: as §1

giant foxtail [11] = test: Test A postemergence; assay type: in vivo, Setaria faberii; conditions: for Plant response rating, Foxtail, Giant: 0 to 100 scale, 0 no effect, 100 complete control
How it was run: as §1

pigweed [12] = test: Test A postemergence; assay type: in vivo, Amaranthus retroflexus; conditions: for Plant response rating, Pigweed: 0 to 100 scale, 0 no effect, 100 complete control
How it was run: as §1

wheat = test: Test A postemergence; assay type: in vivo, Triticum aestivum; conditions: for Plant response rating, Wheat: 0 to 100 scale, 0 no effect, 100 complete control
How it was run: as §1

corn = test: Test A postemergence; assay type: in vivo, Zea mays; conditions: for Plant response rating, Corn: 0 to 100 scale, 0 no effect, 100 complete control
How it was run: as §1

blackgrass = test: Test A postemergence; assay type: in vivo, Alopecurus myosuroides; conditions: for Plant response rating, Blackgrass: 0 to 100 scale, 0 no effect, 100 complete control
How it was run: as §1

galium = test: Test A postemergence; assay type: in vivo, Galium aparine; conditions: for Plant response rating, Galium: 0 to 100 scale, 0 no effect, 100 complete control
How it was run: as §1

rice = test: Test B flooded paddy test; assay type: in vivo, Oryza sativa; conditions: Flood, 250 g ai/ha; 0 to 100 scale where 0 is no effect and 100 is complete control
How it was run: (§2)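 Compound added straight to paddy water, with pots kept flooded 3 cm above soil, on plants grown to the 2-leaf stage. Visual scoring 0-100 (100 = complete control) against untreated controls after 13 to 15 greenhouse days.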

sedge, umbrella = test: Test B flooded paddy test; assay type: in vivo, Cyperus difformis; conditions: Flood, 250 g ai/ha; 0 to 100 scale where 0 is no effect and 100 is complete control
How it was run: as §2

Heteranthera limosa = test: Test B flooded paddy test; assay type: in vivo; conditions: Flood, 250 g ai/ha; 0 to 100 scale where 0 is no effect and 100 is complete control
How it was run: as §2

barnyardgrass [13] = test: Test B flooded paddy test; assay type: in vivo, Echinochloa crus-galli; conditions: Flood, 250 g ai/ha; 0 to 100 scale where 0 is no effect and 100 is complete control
How it was run: as §2

[14] = 1000 g ai/ha, 0 to 100 scale, 0 no effect, 100 complete control, approx. 10 days
[15] = 31 g ai/ha, visual, approximately 10 days
[16] = 125 g ai/ha, 0 to 100 scale where 0 is no effect and 100 is complete control

## Fc1cccc(Oc2ncc(Cl)cn2)c1-n1ccnn1 [Compound 159]
Barnyardgrass [1]; [14]
  Barnyardgrass plant response rating: 100
Kochia [2]; [14]
  Kochia plant response rating: 100
Ragweed [3]; [14]
  Ragweed plant response rating: 100
Italian ryegrass [4]; [14]
  Ryegrass, Italian plant response rating: 30
Giant foxtail [5]; [14]
  Foxtail, Giant plant response rating: 100
Pigweed [6]; [14]
  Pigweed plant response rating: 100
Barnyardgrass [7]; 1000 g ai/ha
  Plant response rating, Barnyardgrass: 70
Kochia [8]; 1000 g ai/ha
  Plant response rating, Kochia: 100
Ragweed [9]; 1000 g ai/ha
  Plant response rating, Ragweed: 80
Italian ryegrass [10]; 1000 g ai/ha
  Plant response rating, Ryegrass, Italian: 30
Giant foxtail [11]; 1000 g ai/ha
  Plant response rating, Foxtail, Giant: 90
Pigweed [12]; 1000 g ai/ha
  Plant response rating, Pigweed: 100
wheat; 1000 g ai/ha
  Plant response rating, Wheat: 30
corn; 1000 g ai/ha
  Plant response rating, Corn: 40
blackgrass; 1000 g ai/ha
  Plant response rating, Blackgrass: 50
galium; 1000 g ai/ha
  Plant response rating, Galium: 90
rice
  Plant response rating, Rice: 0
sedge, umbrella
  Plant response rating, Sedge, Umbrella: 0
Heteranthera limosa
  Plant response rating, Ducksalad: 0
Barnyardgrass [13]
  Plant response rating, Barnyardgrass: 0

## Fc1cccc(Oc2ncc(Cl)cn2)c1-n1cc(-c2ccsc2)nn1 [Compound 277]
Barnyardgrass [1]; [15]
  Plant response rating, Barnyardgrass: 0
Barnyardgrass [1]; 125 g ai/ha
  Barnyardgrass plant response rating (0 to 100 scale, 0 is no effect, 100 is complete control): 0
Kochia [2]; [15]
  Plant response rating, Kochia: 0
Kochia [2]; 125 g ai/ha
  Kochia plant response rating (0 to 100 scale): 0
Ragweed [3]; [15]
  Plant response rating, Ragweed: 0
Ragweed [3]; 125 g ai/ha
  Ragweed plant response rating (0 to 100 scale): 0
Italian ryegrass [4]; [15]
  Plant response rating, Ryegrass, Italian: 0
Italian ryegrass [4]; 125 g ai/ha
  Ryegrass, Italian plant response rating (0 to 100 scale): 0
Giant foxtail [5]; [15]
  Plant response rating, Foxtail, Giant: 30
Giant foxtail [5]; 125 g ai/ha
  Foxtail, Giant plant response rating (0 to 100 scale): 70
Pigweed [6]; [15]
  Plant response rating, Pigweed: 30
Pigweed [6]; 125 g ai/ha
  Pigweed plant response rating (0 to 100 scale): 60
Barnyardgrass [7]; 31 g ai/ha
  Plant response rating, Barnyardgrass: 20
Barnyardgrass [7]; 125 g ai/ha
  Plant response rating, Barnyardgrass: 40
Kochia [8]; 31 g ai/ha
  Plant response rating, Kochia: 60
Kochia [8]; 125 g ai/ha
  Plant response rating, Kochia: 70
Ragweed [9]; 31 g ai/ha
  Plant response rating, Ragweed: 50
Ragweed [9]; 125 g ai/ha
  Plant response rating, Ragweed: 60
Italian ryegrass [10]; 31 g ai/ha
  Plant response rating, Ryegrass, Italian: 30
Italian ryegrass [10]; 125 g ai/ha
  Plant response rating, Ryegrass, Italian: 50
Giant foxtail [11]; 31 g ai/ha
  Plant response rating, Foxtail, Giant: 40
Giant foxtail [11]; 125 g ai/ha
  Plant response rating, Foxtail, Giant: 70
Pigweed [12]; 31 g ai/ha
  Plant response rating, Pigweed: 60
Pigweed [12]; 125 g ai/ha
  Plant response rating, Pigweed: 70
wheat; 31 g ai/ha
  Plant response rating, Wheat: 0
wheat; 125 g ai/ha
  Plant response rating, Wheat: 0
corn; 31 g ai/ha
  Plant response rating, Corn: 0
corn; 125 g ai/ha
  Plant response rating, Corn: 20
blackgrass; 31 g ai/ha
  Plant response rating, Blackgrass: 30
blackgrass; 125 g ai/ha
  Plant response rating, Blackgrass: 50
galium; 31 g ai/ha
  Plant response rating, Galium: 100
galium; 125 g ai/ha
  Plant response rating, Galium: 100
rice
  Plant response rating, Rice: 0
sedge, umbrella
  Plant response rating, Sedge, Umbrella: 80
Heteranthera limosa
  Plant response rating, Ducksalad: 80
Barnyardgrass [13]
  Plant response rating, Barnyardgrass: 0

## CC(C)Oc1cnn(-c2c(Br)cccc2Oc2ncc(Cl)cn2)c1 [Compound 148]
Barnyardgrass [1]; [15]
  Plant response rating, Barnyardgrass: 0
Barnyardgrass [1]; 125 g ai/ha
  Plant response rating, Barnyardgrass: 50
Kochia [2]; [15]
  Plant response rating, Kochia: 0
Kochia [2]; 125 g ai/ha
  Plant response rating, Kochia: 0
Ragweed [3]; [15]
  Plant response rating, Ragweed: 0
Ragweed [3]; 125 g ai/ha
  Plant response rating, Ragweed: 0
Italian ryegrass [4]; [15]
  Plant response rating, Ryegrass, Italian: 0
Italian ryegrass [4]; 125 g ai/ha
  Plant response rating, Ryegrass, Italian: 0
Giant foxtail [5]; [15]
  Plant response rating, Foxtail, Giant: 10
Giant foxtail [5]; 125 g ai/ha
  Plant response rating, Foxtail, Giant: 70
Pigweed [6]; [15]
  Plant response rating, Pigweed: 0
Pigweed [6]; 125 g ai/ha
  Plant response rating, Pigweed: 10
Barnyardgrass [7]; 31 g ai/ha
  Plant response rating, Barnyardgrass: 0
Barnyardgrass [7]; [16]
  Barnyardgrass plant response rating: 30
Kochia [8]; 31 g ai/ha
  Plant response rating, Kochia: 0
Kochia [8]; [16]
  Kochia plant response rating: 30
Ragweed [9]; 31 g ai/ha
  Plant response rating, Ragweed: 10
Ragweed [9]; [16]
  Ragweed plant response rating: 20
Italian ryegrass [10]; 31 g ai/ha
  Plant response rating, Ryegrass, Italian: 0
Italian ryegrass [10]; [16]
  Ryegrass, Italian plant response rating: 0
Giant foxtail [11]; 31 g ai/ha
  Plant response rating, Foxtail, Giant: 10
Giant foxtail [11]; [16]
  Foxtail, Giant plant response rating: 40
Pigweed [12]; 31 g ai/ha
  Plant response rating, Pigweed: 50
Pigweed [12]; [16]
  Pigweed plant response rating: 50
wheat; 31 g ai/ha
  Plant response rating, Wheat: 0
wheat; [16]
  Wheat plant response rating: 0
corn; 31 g ai/ha
  Plant response rating, Corn: 0
corn; [16]
  Corn plant response rating: 20
blackgrass; 31 g ai/ha
  Plant response rating, Blackgrass: 0
blackgrass; [16]
  Blackgrass plant response rating: 10
galium; 31 g ai/ha
  Plant response rating, Galium: 20
galium; [16]
  Galium plant response rating: 60
rice
  Plant response rating, Rice: 0
sedge, umbrella
  Plant response rating, Sedge, Umbrella: 30
Heteranthera limosa
  Plant response rating, Ducksalad: 40
Barnyardgrass [13]
  Plant response rating, Barnyardgrass: 0
